# Laboratory results from ChEMBL document CHEMBL3585294, “LAT Transport Inhibitors from Pittosporum venulosum Identified by NMR Fingerprint Analysis” (J Nat Prod, 2015).
# Experiment: Inhibition of LAT in human LNCAP cells assessed as inhibition of [3H]-L-leucine transport by liquid scintillation counting analysis
# Format: cell-based
row,IC50 [µM],SMILES
1,39.7,CC[C@H](C)C(=O)O[C@@H]1[C@H](O)[C@@H](OC(C)=O)[C@H](OC(C)(C)[C@H]2CC=C(C)CC2)O[C@@H]1C
2,11.5,CC[C@H](C)C(=O)O[C@H]1[C@@H](O)[C@@H](C)O[C@@H](OC(C)(C)[C@H]2CC=C(C)CC2)[C@@H]1OC(C)=O
3,29.2,C/C=C(/C)C(=O)O[C@H]1[C@@H](O)[C@@H](C)O[C@@H](OC(C)(C)[C@H]2CC=C(C)CC2)[C@@H]1OC(C)=O
4,4060,NC1(C(=O)O)CC2CCC1C2 (stereo not given)
5,8.12,CC(=O)O[C@H]1[C@H](OC(C)(C)[C@H]2CC=C(C)CC2)O[C@H](C)[C@H](O)[C@@H]1OC(=O)C=C(C)C
